From patent US20200055817A1 (AbbVie Deutschland GmbH & Co. KG, priority 2016, published 2020) come the findings set out here.

Type in all cases: cell-based
Assay [1] deals with T1, human EDG8 (S1PR5) receptor (Homo sapiens, UniProt Q9H228).
T1 construct: carries the transgenes human EDG8 (S1PR5) receptor (Acession number NP_110387.1); expressed in transfected cells; host or cells: CHO-A21-EDG8#12 (CHO clone co-expressing mitochondrial aequorin and chimaeric Gaqi5)
Nature of the assay: Aequorin assay, agonist potency, CHO-A21-EDG8#12 cells. Particulars: agonist mode, aequorin luminescence; read-out: S1P5 EC50 range #. The method in brief: (§1)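 CHO cells coexpressing receptor, mitochondrial aequorin and Gαqi5 (S1P3 pool: GNA16) were loaded overnight at RT with 5 μM coelenterazine h in 0.1% fatty-acid-free BSA buffer. Cells were injected onto compound, luminescence recorded 90 s and integrated, normalised to digitonin or 20 μM ATP; sigmoidal fit.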

The target of assay [2] is T2, human EDG1 (S1PR1) receptor (Homo sapiens, UniProt P21453).
T2 construct: expressed in transfected cells; host or cells: CHO-A21-Edg1#17 (CHO clone co-expressing mitochondrial aequorin and chimaeric Gaqi5)
T2 sequence (P21453 whole entry): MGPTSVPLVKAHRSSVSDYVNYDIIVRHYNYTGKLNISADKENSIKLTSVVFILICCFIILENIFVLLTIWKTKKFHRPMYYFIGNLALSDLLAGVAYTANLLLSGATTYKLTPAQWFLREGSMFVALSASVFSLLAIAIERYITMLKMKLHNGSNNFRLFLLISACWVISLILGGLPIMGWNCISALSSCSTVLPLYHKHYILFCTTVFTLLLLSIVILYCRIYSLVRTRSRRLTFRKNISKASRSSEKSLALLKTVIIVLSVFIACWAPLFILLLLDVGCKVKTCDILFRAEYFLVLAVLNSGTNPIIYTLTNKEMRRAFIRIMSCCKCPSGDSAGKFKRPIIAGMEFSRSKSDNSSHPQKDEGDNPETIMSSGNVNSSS
As to the kind of experiment: Aequorin assay, agonist potency, CHO-A21-Edg1#17 cells. The note with it: agonist mode, aequorin luminescence; read-out: S1P1 EC50. In a few lines: as §1

Another assay addresses T3, S1P4 (Homo sapiens, UniProt O95977).
T3 sequence (O95977 1-384): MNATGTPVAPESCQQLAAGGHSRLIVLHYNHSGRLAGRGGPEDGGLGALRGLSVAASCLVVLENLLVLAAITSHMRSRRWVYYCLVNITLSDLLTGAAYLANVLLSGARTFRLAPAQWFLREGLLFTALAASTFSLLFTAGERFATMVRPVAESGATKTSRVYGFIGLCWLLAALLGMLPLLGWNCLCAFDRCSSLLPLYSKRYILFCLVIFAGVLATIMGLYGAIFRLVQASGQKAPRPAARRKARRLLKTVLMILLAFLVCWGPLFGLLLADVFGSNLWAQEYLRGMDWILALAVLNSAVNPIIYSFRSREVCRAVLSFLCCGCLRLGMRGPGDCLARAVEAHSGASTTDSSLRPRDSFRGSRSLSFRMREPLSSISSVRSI
Nature of the assay: Aequorin assay, agonist potency, S1P4. The note with it: agonist mode, aequorin luminescence. The method in brief: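 Cells loaded overnight at RT with 5 μM coelenterazine h in DMEM/HAM's F12 with HEPES plus 0.1% fatty acid-free BSA, then injected onto compounds; agonist-induced calcium luminescence recorded for 90 s and integrated. Signal normalised to digitonin (100 μM) or ATP (20 μM) wells, S1P as reference agonist; sigmoidal nonlinear regression.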

Structures are written as SMILES.

T1 sequence (Q9H228 whole entry): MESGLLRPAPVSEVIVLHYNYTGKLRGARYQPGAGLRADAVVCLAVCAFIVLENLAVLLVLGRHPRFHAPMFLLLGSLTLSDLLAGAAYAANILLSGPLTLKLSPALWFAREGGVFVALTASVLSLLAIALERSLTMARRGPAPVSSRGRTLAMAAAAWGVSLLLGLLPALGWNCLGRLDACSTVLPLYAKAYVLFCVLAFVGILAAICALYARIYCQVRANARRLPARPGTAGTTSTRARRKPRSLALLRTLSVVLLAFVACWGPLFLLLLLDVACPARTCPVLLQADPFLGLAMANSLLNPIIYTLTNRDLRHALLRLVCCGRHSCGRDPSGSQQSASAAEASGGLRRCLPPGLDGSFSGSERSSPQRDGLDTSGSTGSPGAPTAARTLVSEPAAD

For orientation: EC50 means the midpoint of the concentration-response curve. Consider `O=C(O)C1(CN2CC3(Cc4ccc(OCc5ccccc5C(F)(F)F)cc4C3)C2)CC1` [Example 41, 1-((5′-((2-(trifluoromethyl)benzyl)oxy)-1′,3′-dihydrospiro[azetidine-3,2′-inden]-1-yl)methyl)cyclopropanecarboxylic acid compound with 2,2,2-trifluoroacetic acid (1:1)], for which the EC50 is 1 to 10 µM in assay [1], over 1 µM in assay [2] and under 1 µM at S1P4.
In the case of `O=C(O)C1(CN2CC3(Cc4ccc(OCCc5c[nH]c6ccccc56)cc4C3)C2)CC1` [Example 144, 1-((5′-(2-(1H-indol-3-yl)ethoxy)-1′,3′-dihydrospiro[azetidine-3,2′-inden]-1-yl)methyl)cyclopropanecarboxylic acid], the EC50 in assay [1] was 1 to 10 µM; in assay [2] it was over 1 µM; on S1P4, over 1 µM.
Turning to `O=C(O)C1(CN2CC3(Cc4ccc(OCc5c(Cl)cccc5C(F)(F)F)cc4C3)C2)CC1` [Example 47, 1-((5′-((2-chloro-6-(trifluoromethyl)benzyl)oxy)-1′,3′-dihydrospiro[azetidine-3,2′-inden]-1-yl)methyl)cyclopropanecarboxylic acid Compound with 2,2,2-trifluoroacetic acid (1:1)], the values for the EC50 (in assay [1]; in assay [2]; at S1P4) were at most 0.01 µM, over 1 µM and under 1 µM, respectively.
The like results for `O=C(O)C1CC(N2CC3(Cc4ccc(OCc5cccc6c5CCC6)cc4C3)C2)C1` (stereo not drawn) [Example 83, 3-(5′-((2,3-dihydro-1H-inden-4-yl)methoxy)-1′,3′-dihydrospiro[azetidine-3,2′-inden]-1-yl)cyclobutanecarboxylic acid] were, in that order, 0.01 to 0.1 µM, over 1 µM and under 1 µM.
The like results for `O=C(O)CN1CC2(Cc3ccc(C#Cc4ccccc4Cl)cc3C2)C1` [Example 80, 2-(5′-((2-chlorophenyl)ethynyl)-1′,3′-dihydrospiro[azetidine-3,2′-inden]-1-yl)acetic acid] were, in that order, at most 0.01 µM, over 1 µM and under 1 µM.
The like results for `O=C(O)CN1CC2(Cc3ccc(C#Cc4ccccc4)cc3O2)C1` [Example 151, 2-(6′-(phenylethynyl)-3′H-spiro[azetidine-3,2′-benzofuran]-1-yl)acetic acid] were, in that order, at most 0.01 µM, over 1 µM and under 1 µM.
Turning to `O=C(O)CN1CC2(Cc3ccc(OCc4ccc(Br)cc4Cl)cc3C2)C1` [Example 22, 2-(5′-((4-bromo-2-chlorobenzyl)oxy)-1′,3′-dihydrospiro[azetidine-3,2′-inden]-1-yl)acetic acid], the values for the EC50 (in assay [1]; in assay [2]; on S1P4) were 0.01 to 0.1 µM, over 1 µM and under 1 µM, respectively.
The like results for `Cc1cccc(F)c1COc1ccc2c(c1)CC1(C2)CN(CC(=O)O)C1` [Example 17, 2,2,2-trifluoroacetic acid compound with 2-(5′-((2-fluoro-6-methylbenzyl)oxy)-1′,3′-dihydrospiro[azetidine-3,2′-inden]-1-yl)acetic acid (1:1)] were, in that order, at most 0.01 µM, over 1 µM and under 1 µM.
On to `O=C(O)C1(CN2CC3(Cc4ccc(OCCc5ccccc5Cl)cc4C3)C2)CC1` [Example 58, 1-((5′-(2-chlorophenethoxy)-1′,3′-dihydrospiro[azetidine-3,2′-inden]-1-yl)methyl)cyclopropanecarboxylic acid], for which the half-maximal effective concentration (EC50) in assay [1] is 0.1 to 1 µM; in assay [2] it was over 1 µM; on S1P4 it was under 1 µM.
The like results for `CC(C)Oc1ccc(C#Cc2ccc3c(c2)CC2(C3)CN(CC3(C(=O)O)CC3)C2)cc1` [Example 113, 1-((5′-((4-isopropoxyphenyl)ethynyl)-1′,3′-dihydrospiro[azetidine-3,2′-inden]-1-yl)methyl)cyclopropanecarboxylic acid] were, in that order, at most 0.01 µM, under 1 µM and over 1 µM.
The like results for `O=C(O)C1(CN2CC3(Cc4ccc(OCc5ccc6c(c5)OCO6)cc4C3)C2)CC1` [Example 143, 1-((5′-(benzo[d][1,3]dioxol-5-ylmethoxy)-1′,3′-dihydrospiro[azetidine-3,2′-inden]-1-yl)methyl)cyclopropanecarboxylic acid] were, in that order, 1 to 10 µM, over 1 µM and under 1 µM.
Consider `CCc1cccc(F)c1COc1ccc2c(c1)CC1(C2)CN(CC(C)CC(=O)O)C1` (stereo not drawn) [Example 65, 4-(5′-((2-ethyl-6-fluorobenzyl)oxy)-1′,3′-dihydrospiro[azetidine-3,2′-inden]-1-yl)-3-methylbutanoic acid], for which the figures for the 50% effective concentration (EC50) (in assay [1]; in assay [2]; on S1P4) were 0.01 to 0.1 µM, over 1 µM and under 1 µM, respectively.
The like results for `O=C(O)C1(CN2CC3(Cc4ccc(OC5CCc6cccc(Cl)c65)cc4C3)C2)CC1` (stereo not drawn) [Example 129, 1-((5′-((7-chloro-2,3-dihydro-1H-inden-1-yl)oxy)-1′,3′-dihydrospiro[azetidine-3,2′-inden]-1-yl)methyl)cyclopropanecarboxylic acid] were, in that order, at most 0.01 µM, over 1 µM and under 1 µM.
Taken in the same sequence, the figures for `O=C(O)CN1CC2(Cc3ccc(OCc4cc(F)ccc4C(F)(F)F)cc3C2)C1` [Example 27, 2-(5′-((5-fluoro-2-(trifluoromethyl)benzyl)oxy)-1′,3′-dihydrospiro[azetidine-3,2′-inden]-1-yl)acetic acid] were at most 0.01 µM, over 1 µM and under 1 µM.
Taken in the same sequence, the figures for `O=C(O)C1(CN2CC3(Cc4ccc(-c5ccc(OCc6ccccc6)cc5)cc4C3)C2)CC1` [Example 53, 1-((5′-(4-(benzyloxy)phenyl)-1′,3′-dihydrospiro[azetidine-3,2′-inden]-1-yl)methyl)cyclopropanecarboxylic acid] were 0.1 to 1 µM, over 1 µM and under 1 µM.
Consider `O=C(O)CN1CC2(Cc3ccc(C#Cc4cccc(Cl)c4)cc3O2)C1` [Example 152, 2-(6′-((3-chlorophenyl)ethynyl)-3′H-spiro[azetidine-3,2′-benzofuran]-1-yl)acetic acid], for which the concentration for a half-maximal effect (EC50) in assay [1] is at most 0.01 µM; in assay [2] it was over 1 µM; at S1P4, under 1 µM.
Taken in the same sequence, the figures for `O=C(O)C1(CN2CC3(Cc4ccc(OC5Cc6ccccc6C5)cc4C3)C2)CC1` [Example 127, 1-((5′-((2,3-dihydro-1H-inden-2-yl)oxy)-1′,3′-dihydrospiro[azetidine-3,2′-inden]-1-yl)methyl)cyclopropanecarboxylic acid] were 1 to 10 µM, over 1 µM and under 1 µM.
The like results for `CCOc1ccc(C#Cc2ccc3c(c2)OC2(C3)CN(CC(=O)O)C2)cc1` [Example 154, 2-(6′-((4-ethoxyphenyl)ethynyl)-3′H-spiro[azetidine-3,2′-benzofuran]-1-yl)acetic acid] were, in that order, 0.01 to 0.1 µM, under 1 µM and over 1 µM.
Taken in the same sequence, the figures for `O=C(O)CN1CC2(Cc3ccc(OCc4cccc5c4OCC5)cc3C2)C1` [Example 72, 2-(5′-((2,3-dihydrobenzofuran-7-yl)methoxy)-1′,3′-dihydrospiro[azetidine-3,2′-inden]-1-yl)acetic acid] were 0.1 to 1 µM, over 1 µM and under 1 µM.
As to `O=C(O)CN1CC2(Cc3ccc(OCCc4ccccc4Cl)cc3C2)C1` [Example 61, 2-(5′-(2-chlorophenethoxy)-1′,3′-dihydrospiro[azetidine-3,2′-inden]-1-yl)acetic acid], the EC50 is 0.01 to 0.1 µM in assay [1], over 1 µM in assay [2] and under 1 µM at S1P4.
Taken in the same sequence, the figures for `O=C(O)C1CC(N2CC3(Cc4ccc(OCc5c(Cl)cccc5Cl)cc4C3)C2)C1` (stereo not drawn) [Example 92, 3-(5′-((2,6-dichlorobenzyl)oxy)-1′,3′-dihydrospiro[azetidine-3,2′-inden]-1-yl)cyclobutanecarboxylic acid] were at most 0.01 µM, over 1 µM and under 1 µM.
Consider `CCOc1cc(F)c(COc2ccc3c(c2)CC2(C3)CN(CC3(C(=O)O)CC3)C2)c(F)c1` [Example 122, 1-((5′-((4-ethoxy-2,6-difluorobenzyl)oxy)-1′,3′-dihydrospiro[azetidine-3,2′-inden]-1-yl)methyl)cyclopropanecarboxylic acid], for which the results for the EC50 (in assay [1]; in assay [2]; at S1P4) were 1 to 10 µM, over 1 µM and under 1 µM, respectively.
Taken in the same sequence, the figures for `O=C(O)CN1CC2(Cc3ccc(C#Cc4ccccc4Cl)cc3O2)C1` [Example 153, 2-(6′-((2-chlorophenyl)ethynyl)-3′H-spiro[azetidine-3,2′-benzofuran]-1-yl)acetic acid] were at most 0.01 µM, over 1 µM and under 1 µM.
